From patent US10646488B2 (Araxes Pharma LLC, priority 2016, dated 2020) come the findings set out here.

For this assay, the target named is T1, KRAS G12C 1-169, his-tagged protein, GDP-loaded (Homo sapiens, UniProt P01116, G12C).
T1 construct: KRAS G12C 1-169, his-tagged protein, GDP-loaded
Kind of assay: Covalent binding (% modification) to KRAS G12C by mass spectrometry. Also: test concentration or dose not given here. Conditions: covalent binding to KRAS G12C after a three minute incubation period.

The structures appear in SMILES notation.

As to `C=CC(=O)N1C[C@H](C)N(c2nc(N3CC(N(C)C)C3)nc3c(F)c(-c4cc5ccccc5cc4O)c(Cl)cc23)C[C@H]1C` [Compound 146, 1-((2R,5S)-4-(6-chloro-2-(3-(dimethylamino)azetidin-1-yl)-8-fluoro-7-(3-hydroxynaphthalen-2-yl)quinazolin-4-yl)-2,5-dimethyl-piperazin-1-yl) prop-2-en-1-one], the Binding % entry was “+ (+ indicates binding activity greater than 0% and up to 50%)”.

Consider `C=CC(=O)N1C[C@H](C)N(c2nc(N3CC(N(C)C)C3)nc3c(F)c(-c4cc(O)cc5ccccc45)c(Cl)cc23)C[C@H]1C` [Compound 147, 1-((2R,5S)-4-(6-chloro-2-(3-(dimethylamino)azetidin-1-yl)-8-fluoro-7-(3-hydroxynaphthalen-1-yl)quinazolin-4-yl)-2,5-dimethyl-piperazin-1-yl) prop-2-en-1-one], for which the Binding % entry is listed as “+++ (+++ indicates binding activity greater than 90%)”.

As for `C#CCN(C)C1CN(c2nc(N3C[C@@H](C)N(C(=O)C=C)C[C@@H]3C)c3cc(Cl)c(-c4c(C)ccc5cn[nH]c45)c(F)c3n2)C1` [Compound 148, 1-((2R,5S)-4-(6-chloro-8-fluoro-2-(3-(methyl (prop-2-yn-1-yl)amino)azetidin-1-yl)-7-(6-methyl-1H-indazol-7-yl)quinazolin-4-yl)-2,5-dimethyl-piperazin-1-yl) prop-2-en-1-one], the Binding % entry is “++ (++ indicates binding activity from 50 to 90%)”.

As to `C=CC(=O)N1C[C@H](C)N(c2nc(N3CC4(CCN(C5CC5)C4)C3)nc3c(F)c(-c4c(O)cccc4F)c(Cl)cc23)C[C@H]1C` [Compound 149, 1-((2R,5S)-4-(6-chloro-2-(6-cyclopropyl-2,6-diazaspiro[3.4]octan-2-yl)-8-fluoro-7-(2-fluoro-6-hydroxyphenyl)quinazolin-4-yl)-2,5-dimethyl-piperazin-1-yl) prop-2-en-1-one], the Binding % entry was “++ (++ indicates binding activity from 50 to 90%)”.

As to `C=CC(=O)N1CCN(c2nc(N3CC(C)(N(C)C)C3)nc3c(F)c(-c4c(C)ccc5[nH]ncc45)c(Cl)cc23)[C@@H](C)C1` [Compound 150, 1-((3S)-4-(6-chloro-2-(3-(dimethylamino)-3-methylazetidin-1-yl)-8-fluoro-7-(5-methyl-1H-indazol-4-yl)quinazolin-4-yl)-3-methyl-piperazin-1-yl) prop-2-en-1-one], the Binding % entry is given as “+++ (+++ indicates binding activity greater than 90%)”.

Take `C=CC(=O)N1CCN(c2nc(N3CC(C)(N(C)C)C3)nc3c(F)c(-c4c(O)cccc4F)c(Cl)cc23)[C@@H](C)C1` [Compound 153, 1-((3S)-4-(6-chloro-2-(3-(dimethylamino)-3-methylazetidin-1-yl)-8-fluoro-7-(2-fluoro-6-hydroxyphenyl)quinazolin-4-yl)-3-methyl-piperazin-1-yl) prop-2-en-1-one]: the Binding % entry was “+++ (+++ indicates binding activity greater than 90%)”.

On to `C=CC(=O)N1C[C@H](C)N(c2nc(OCCCN(CC)CC)nc3c(F)c(-c4c(O)cccc4F)c(Cl)cc23)C[C@H]1C` [Compound 158, 1-((2R,5S)-4-(6-chloro-2-(3-(diethylamino)propoxy)-8-fluoro-7-(2-fluoro-6-hydroxyphenyl)quinazolin-4-yl)-2,5-dimethyl-piperazin-1-yl) prop-2-en-1-one], for which the Binding % result is “+++ (+++ indicates binding activity greater than 90%)”.

Consider `C=CC(=O)N1C[C@H](C)N(c2nc(N3CC4(CCOCC4)C3)nc3c(F)c(-c4c(O)cccc4F)c(Cl)cc23)C[C@H]1C` [Compound 159, 1-((2R,5S)-4-(6-chloro-8-fluoro-7-(2-fluoro-6-hydroxyphenyl)-2-(7-oxa-2-azaspiro[3.5]nonan-2-yl)quinazolin-4-yl)-2,5-dimethyl-piperazin-1-yl) prop-2-en-1-one], for which the Binding % entry is listed as “++ (++ indicates binding activity from 50 to 90%)”.

As to `C=CC(=O)N1C[C@H](C)N(c2nc(N3CC(N(C)C)C3)nc3c(F)c(-c4cc(Cl)ccc4F)c(Cl)cc23)C[C@H]1C` [Compound 160, 1-((2R,5S)-4-(6-chloro-7-(5-chloro-2-fluoro-phenyl)-2-(3-(dimethylamino)azetidin-1-yl)-8-fluoroquinazolin-4-yl)-2,5-dimethyl-piperazin-1-yl) prop-2-en-1-one], the Binding % entry is listed as “++ (++ indicates binding activity from 50 to 90%)”.

With `C=CC(=O)N1C[C@H](C)N(c2nc(N3CC(N(C)C)C3)nc3c(F)c(-c4ccc(Cl)cc4F)c(Cl)cc23)C[C@H]1C` [Compound 161, 1-((2R,5S)-4-(6-chloro-7-(4-chloro-2-fluoro-phenyl)-2-(3-(dimethylamino)azetidin-1-yl)-8-fluoroquinazolin-4-yl)-2,5-dimethyl-piperazin-1-yl) prop-2-en-1-one], the Binding % result was “+ (+ indicates binding activity greater than 0% and up to 50%)”.

Regarding `C=CC(=O)N1C[C@H](C)N(c2nc(N3CC4(CCOCC4)C3)nc3c(F)c(-c4c(C)ccc5[nH]ncc45)c(Cl)cc23)C[C@H]1C` [Compound 162, 1-((2R,5S)-4-(6-chloro-8-fluoro-7-(5-methyl-1H-indazol-4-yl)-2-(7-oxa-2-azaspiro[3.5]nonan-2-yl)quinazolin-4-yl)-2,5-dimethyl-piperazin-1-yl) prop-2-en-1-one], the Binding % result was “+ (+ indicates binding activity greater than 0% and up to 50%)”.

For the compound `C=CC(=O)N1CCN(c2nc(N3CC(C)(N(C)C)C3)nc3c(F)c(-c4c(O)cccc4F)c(Cl)cc23)C[C@H]1C` [Compound 163, 1-((2R)-4-(6-chloro-2-(3-(dimethylamino)-3-methylazetidin-1-yl)-8-fluoro-7-(2-fluoro-6-hydroxyphenyl)quinazolin-4-yl)-2-methyl-piperazin-1-yl) prop-2-en-1-one], the Binding % result was “++ (++ indicates binding activity from 50 to 90%)”.

Turning to `C=CC(=O)N1CCN(c2nc(N3CC(N(CC)CC)C3)nc3c(F)c(-c4c(O)cccc4F)c(Cl)cc23)C[C@H]1C` [Compound 164, 1-((2R)-4-(6-chloro-2-(3-(diethylamino)azetidin-1-yl)-8-fluoro-7-(2-fluoro-6-hydroxyphenyl)quinazolin-4-yl)-2-methyl-piperazin-1-yl) prop-2-en-1-one], the Binding % entry is on record as “++ (++ indicates binding activity from 50 to 90%)”.

Regarding `C=CC(=O)N1C[C@H](C)N(c2nc(N3CC(N)C3)nc3c(F)c(-c4c(C)ccc5[nH]ncc45)c(Cl)cc23)C[C@H]1C` [Compound 165, 1-((2R,5S)-4-(2-(3-aminoazetidin-1-yl)-6-chloro-8-fluoro-7-(5-methyl-1H-indazol-4-yl)quinazolin-4-yl)-2,5-dimethyl-piperazin-1-yl) prop-2-en-1-one], the Binding % result is listed as “++ (++ indicates binding activity from 50 to 90%)”.

Regarding `C=CC(=O)N1CCN(c2nc(N3CC(N(CC)CC)C3)nc3c(F)c(-c4c(C)ccc5[nH]ncc45)c(Cl)cc23)C[C@H]1C` [Compound 166, 1-((2R)-4-(6-chloro-2-(3-(diethylamino)azetidin-1-yl)-8-fluoro-7-(5-methyl-1H-indazol-4-yl)quinazolin-4-yl)-2-methyl-piperazin-1-yl) prop-2-en-1-one], the Binding % entry was “++ (++ indicates binding activity from 50 to 90%)”.

With `C=CC(=O)N1CCN(c2nc(N3CC(N(CC)CC)C3)nc3c(F)c(-c4c(C)ccc5[nH]ncc45)c(Cl)cc23)[C@@H](C)C1` [Compound 167, 1-((3S)-4-(6-chloro-2-(3-(diethylamino)azetidin-1-yl)-8-fluoro-7-(5-methyl-1H-indazol-4-yl)quinazolin-4-yl)-3-methyl-piperazin-1-yl) prop-2-en-1-one], the Binding % result was “+++ (+++ indicates binding activity greater than 90%)”.

Take `C=CC(=O)N1C[C@H](C)N(c2nc(N3CC(N(C)C)C3)nc3c(F)c(-c4ccccc4C(F)(F)F)c(Cl)cc23)C[C@H]1C` [Compound 168, 1-((2R,5S)-4-(6-chloro-2-(3-(dimethylamino)azetidin-1-yl)-8-fluoro-7-(2-(trifluoromethyl)phenyl)quinazolin-4-yl)-2,5-dimethyl-piperazin-1-yl) prop-2-en-1-one]: the Binding % result is given as “++ (++ indicates binding activity from 50 to 90%)”.

Regarding `C=CC(=O)N1C[C@H](C)N(c2nc(OCCN3CC(F)(F)C3)nc3c(F)c(-c4cc(O)cc5ccccc45)c(Cl)cc23)C[C@H]1C` [Compound 169, 1-((2R,5S)-4-(6-chloro-2-(2-(3,3-difluoroazetidin-1-yl)ethoxy)-8-fluoro-7-(3-hydroxynaphthalen-1-yl)quinazolin-4-yl)-2,5-dimethyl-piperazin-1-yl) prop-2-en-1-one], the Binding % result was “++ (++ indicates binding activity from 50 to 90%)”.

As to `C=CC(=O)N1C[C@H](C)N(c2nc(N3CC4(CCN4C)C3)nc3c(F)c(-c4c(C)ccc5[nH]ncc45)c(Cl)cc23)C[C@H]1C` [Compound 170, 1-((2R,5S)-4-(6-chloro-8-fluoro-7-(5-methyl-1H-indazol-4-yl)-2-(1-methyl-1,6-diazaspiro[3.3]heptan-6-yl)quinazolin-4-yl)-2,5-dimethyl-piperazin-1-yl) prop-2-en-1-one], the Binding % result was “+ (+ indicates binding activity greater than 0% and up to 50%)”.

`C=CC(=O)N1CCN(c2nc(N3CC(C)(N(C)C)C3)nc3c(F)c(-c4c(C)ccc5[nH]ncc45)c(Cl)cc23)C[C@H]1C` [Compound 171, 1-((2R)-4-(6-chloro-2-(3-(dimethylamino)-3-methylazetidin-1-yl)-8-fluoro-7-(5-methyl-1H-indazol-4-yl)quinazolin-4-yl)-2-methyl-piperazin-1-yl) prop-2-en-1-one]: the Binding % entry is recorded as “++ (++ indicates binding activity from 50 to 90%)”.

As to `C=CC(=O)N1C[C@H](C)N(c2nc(OCCCN(C)C)nc3c(F)c(-c4c(O)cccc4F)c(Cl)cc23)C[C@H]1C` [Compound 172, 1-((2R,5S)-4-(6-chloro-2-(3-(dimethylamino)propoxy)-8-fluoro-7-(2-fluoro-6-hydroxyphenyl)quinazolin-4-yl)-2,5-dimethyl-piperazin-1-yl) prop-2-en-1-one], the Binding % entry was “+++ (+++ indicates binding activity greater than 90%)”.
